Here are results for 9 compounds from patent publication US12522623B2, “Small molecule STAT protein degraders” (THE REGENTS OF THE UNIVERSITY OF MICHIGAN, priority 2020, dated 2026).

Format in all cases: cell-based
In one test the target is T1, STAT3 (Homo sapiens, UniProt P40763).
T1 construct: endogenous in cells; host or cells: MOLM-16 (acute leukemia cells)
The experiment in a line: Fluorescent immunoblotting of STAT3 protein in MOLM-16 cells (estimated DC50). The following applies: MOLM-16, 4 h. The procedure: (§1) In vitro cultured cells or xenograft tumors were lysed 1×Cell Lysis Buffer (Cell Signaling Technology, #9803), resolved by SDS-PAGE NuPAGE gel (Thermo Fisher Scientific), and transferred to a PVDF membrane (Bio Rad). For chemiluminescence immunoblotting, membranes were blocked for 1 h using 5% Blotting-Grade Blocker (#1706404, Bio Rad) in 1×Tris-buffered saline with Tween 20 (TBST, Pierce). Antibodies used were: rabbit mAbs for STAT3 (Cell Signaling Technology, #4368, #12640) and p-STAT3 (Y705) (Cell Signaling Technology, #9245, #52075). HRP conjugated goat anti-rabbit IgG (H+L) (#A27036) secondary antibodies was from Thermo Fisher Scientific. GAPDH (Santa Cruz Technology, sc-47724HRP) and actin (Santa Cruz Technology, sc-8432HRP, sc-47778HRP) were loading controls. For fluorescent immunoblotting, membranes were blocked using Odyssey TBS Blocker Buffer (LI-COR). IRDye 680RD and 800CW Dye-labeled secondary antibodies (LI-COR) were used. The washed membranes were scanned using Odyssey CLx imager (LI-COR). The intensity of Western blot signaling was quantitated using the Odyssey software or Image Studio V5.2 (LI-COR).

In another test the target is T2, STAT1 (Homo sapiens, UniProt P42224).
T2 construct: endogenous in cells; host or cells: MOLM-16 (acute leukemia cells)
T2 sequence (P42224 1-750): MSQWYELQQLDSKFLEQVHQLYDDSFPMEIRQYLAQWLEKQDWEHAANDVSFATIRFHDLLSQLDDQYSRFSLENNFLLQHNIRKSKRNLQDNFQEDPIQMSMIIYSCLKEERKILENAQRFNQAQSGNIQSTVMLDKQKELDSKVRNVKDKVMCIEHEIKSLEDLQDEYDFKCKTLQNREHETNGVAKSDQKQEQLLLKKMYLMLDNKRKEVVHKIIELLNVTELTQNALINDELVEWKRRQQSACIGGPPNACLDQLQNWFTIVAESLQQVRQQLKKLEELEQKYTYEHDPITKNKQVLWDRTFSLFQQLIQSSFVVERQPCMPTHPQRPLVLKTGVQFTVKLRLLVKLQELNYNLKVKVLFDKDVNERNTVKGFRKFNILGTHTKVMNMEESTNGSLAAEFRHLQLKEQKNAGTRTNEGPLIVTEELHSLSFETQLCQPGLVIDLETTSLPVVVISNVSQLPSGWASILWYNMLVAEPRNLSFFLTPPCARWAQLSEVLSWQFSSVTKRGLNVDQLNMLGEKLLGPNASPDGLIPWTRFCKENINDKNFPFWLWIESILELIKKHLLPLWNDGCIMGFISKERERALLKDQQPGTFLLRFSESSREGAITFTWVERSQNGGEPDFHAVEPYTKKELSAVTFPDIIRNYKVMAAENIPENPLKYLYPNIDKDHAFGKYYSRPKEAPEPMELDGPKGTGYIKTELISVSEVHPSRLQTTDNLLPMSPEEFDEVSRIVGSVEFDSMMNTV
The test is described as follows: Fluorescent immunoblotting of STAT1 protein in MOLM-16 cells (estimated DC50). The following applies: MOLM-16, 4 h. The procedure: as §1

The subject of a further test is MOLM-16 cells. The test is described as follows: Cell growth inhibition, 4-day proliferation assay (CellTiter-Glo). To be noted: MOLM16, 96 h; MOLM-16, 4 days. The procedure: The effect of representative Compounds of the Disclosure on cell viability was determined in a 4-day proliferation assay. Cells were maintained in the appropriate culture medium at 37° C. and an atmosphere of 5% CO2. All the cell lines were used within three months of thawing fresh vials. Cells were seeded in 384-well white plates (Corning Costar) at a density of 2,000 cells/well in 25 μl of culture medium. Compounds were serially diluted in the appropriate medium, and 25 μl of the diluted compounds were added to the cells. After the addition of compounds, the cells were incubated at 37° C. in an atmosphere of 5% CO2 for 4 days. Cell viability was determined using the CellTiter-Glo® Luminescent Cell Viability Assay Kit (Promega, Madison, WI) according to the manufacturers' instructions. Essentially, 50 μl of CellTiter-Glo® Reagent was added to each well, and then the plates were incubated at room temperature for 20 minutes. The luminescent signal was measured using a Tecan multimode microplate reader (Tecan, Morrisville, NC). The readings were normalized to the DMSO-treated cells and the IC50 was calculated by nonlinear regression (four parameters sigmoid fitted with variable slope, least squares fit, and no constraint) analysis using the GraphPad Prism software.

pIC50: −log10 of the molar value. Bounds are passed on as bounds.

T1 sequence (P40763 whole entry): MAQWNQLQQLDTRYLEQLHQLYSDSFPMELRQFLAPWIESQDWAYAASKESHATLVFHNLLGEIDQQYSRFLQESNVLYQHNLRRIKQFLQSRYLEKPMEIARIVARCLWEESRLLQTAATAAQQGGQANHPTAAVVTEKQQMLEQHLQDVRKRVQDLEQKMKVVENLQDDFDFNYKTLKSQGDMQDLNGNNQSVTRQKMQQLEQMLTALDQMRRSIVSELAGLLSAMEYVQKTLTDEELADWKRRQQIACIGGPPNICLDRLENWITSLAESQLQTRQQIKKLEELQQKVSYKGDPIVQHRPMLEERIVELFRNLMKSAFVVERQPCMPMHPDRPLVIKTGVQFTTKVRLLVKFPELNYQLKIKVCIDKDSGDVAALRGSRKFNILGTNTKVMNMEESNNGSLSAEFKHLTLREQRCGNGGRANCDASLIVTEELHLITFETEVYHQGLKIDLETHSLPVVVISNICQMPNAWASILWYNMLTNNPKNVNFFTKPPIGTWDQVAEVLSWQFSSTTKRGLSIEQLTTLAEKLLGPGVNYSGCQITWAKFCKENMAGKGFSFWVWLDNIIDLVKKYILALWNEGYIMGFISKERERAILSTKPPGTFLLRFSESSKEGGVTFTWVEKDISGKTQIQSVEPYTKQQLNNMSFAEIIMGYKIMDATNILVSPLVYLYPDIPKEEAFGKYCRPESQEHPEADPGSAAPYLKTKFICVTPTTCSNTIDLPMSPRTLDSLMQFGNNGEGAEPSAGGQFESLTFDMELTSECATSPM

As to `COC(=O)N1CC[C@H]2CC[C@@H](C(=O)N[C@@H](CCCN)C(=O)N[C@@H](Cc3ccc(C(C)(C)C)cc3)C(=O)N3CCC(CCC#Cc4cccc5c4CN(C4CCC(=O)NC4=O)C5=O)CC3)N2C(=O)[C@@H](NC(=O)c2cc3cc(C(F)(F)P(=O)(O)O)ccc3s2)C1` (stereo partly drawn) [Cpd. No. 1, ((2-(((5S,8S,10aR)-8-(((2S)-5-amino-1-(((2S)-3-(4-(tert-butyl)phenyl)-1-(4-(4-(2-(2,6-dioxopiperidin-3-yl)-1-oxoisoindolin-4-yl)but-3-yn-1-yl)piperidin-1-yl)-1-oxopropan-2-yl)amino)-1-oxopentan-2-yl)carbamoyl)-3-(methoxycarbonyl)-6-oxodecahydropyrrolo[1,2-a][1,5]diazocin-5-yl)carbamoyl)benzo[b]thiophen-5-yl)difluoromethyl)phosphonic acid], the figures for the DC50 on STAT3 and on STAT1 were 1000 nM and greater than 1000 nM, respectively.
For orientation: pIC50 means −log10 of the IC50, conventionally taken in molar units. Consider `NC(=O)CC[C@H](NC(=O)[C@@H]1CC[C@@H]2CCN(C(=O)CCCCCC#Cc3cccc4c3CN(C3CCC(=O)NC3=O)C4=O)C[C@H](NC(=O)c3cc4cc(C(F)(F)P(=O)(O)O)ccc4s3)C(=O)N21)c1ncc(-c2ccc(F)cc2)s1` (stereo partly drawn) [Cpd. No. 9, ((2-(((5S,8S,10aR)-8-(((S)-4-amino-1-(5-(4-fluorophenyl)thiazol-2-yl)-4-oxobutyl)carbamoyl)-3-(8-(2-(2,6-dioxopiperidin-3-yl)-1-oxoisoindolin-4-yl)oct-7-ynoyl)-6-oxodecahydropyrrolo[1,2-a][1,5]diazocin-5-yl)carbamoyl)benzo[b]thiophen-5-yl)difluoromethyl)phosphonic acid], for which the DC50 at STAT3 is 50 nM. For the same compound, the pIC50 with MOLM-16 cells is 7.22.
For the compound `NC(=O)CC[C@H](NC(=O)[C@@H]1CC[C@@H]2CCN(C(=O)CCCCCC#Cc3cccc4c3CN(C3CCC(=O)NC3=O)C4=O)C[C@H](NC(=O)c3cc4cc(C(F)(F)P(=O)(O)O)ccc4s3)C(=O)N21)c1nc(-c2ccc(F)c(Cl)c2)cs1` (stereo partly drawn) [Cpd. No. 14, ((2-(((5S,8S,10aR)-8-(((S)-4-amino-1-(4-(3-chloro-4-fluorophenyl)thiazol-2-yl)-4-oxobutyl)carbamoyl)-3-(8-(2-(2,6-dioxopiperidin-3-yl)-1-oxoisoindolin-4-yl)oct-7-ynoyl)-6-oxodecahydropyrrolo[1,2-a][1,5]diazocin-5-yl)carbamoyl)benzo[b]thiophen-5-yl)difluoromethyl)phosphonic acid], the DC50 at STAT3 is 50 nM. The pIC50 in the test on MOLM-16 cells is 7.43.
Regarding `NC(=O)CC[C@H](NC(=O)[C@@H]1CC[C@@H]2CCN(C(=O)CCCCCC#Cc3cccc4c3CN(C3CCC(=O)NC3=O)C4=O)C[C@H](NC(=O)c3cc4cc(C(F)(F)P(=O)(O)O)ccc4s3)C(=O)N21)c1ncc(-c2ccccc2F)s1` (stereo partly drawn) [Cpd. No. 16, ((2-(((5S,8S,10aR)-8-(((S)-4-amino-1-(5-(2-fluorophenyl)thiazol-2-yl)-4-oxobutyl)carbamoyl)-3-(8-(2-(2,6-dioxopiperidin-3-yl)-1-oxoisoindolin-4-yl)oct-7-ynoyl)-6-oxodecahydropyrrolo[1,2-a][1,5]diazocin-5-yl)carbamoyl)benzo[b]thiophen-5-yl)difluoromethyl)phosphonic acid], the DC50 on STAT3 is 50 nM. Besides, the pIC50 in the test on MOLM-16 cells was 7.17.
As for `CCN1CC[C@H]2CC[C@@H](C(=O)N[C@@H](CCS(C)(=O)=O)C(=O)N[C@@H](Cc3ccc(C(C)(C)C)cc3)C(=O)N3CCC(CCC#Cc4cccc5c4CN(C4CCC(=O)NC4=O)C5=O)CC3)N2C(=O)[C@@H](NC(=O)c2cc3cc(C(F)(F)P(=O)(O)O)ccc3s2)C1` (stereo partly drawn) [Cpd. No. 18, ((2-(((5S,8S,10aR)-8-(((2S)-1-(((2S)-3-(4-(tert-butyl)phenyl)-1-(4-(4-(2-(2,6-dioxopiperidin-3-yl)-1-oxoisoindolin-4-yl)but-3-yn-1-yl)piperidin-1-yl)-1-oxopropan-2-yl)amino)-4-(methylsulfonyl)-1-oxobutan-2-yl)carbamoyl)-3-ethyl-6-oxodecahydropyrrolo[1,2-a][1,5]diazocin-5-yl)carbamoyl)benzo[b]thiophen-5-yl)difluoromethyl)phosphonic acid], the results for the DC50 at STAT3 and at STAT1 were less than 250 nM and greater than 1000 nM, respectively.
The matching figures for `CCN1CC[C@H]2CC[C@@H](C(=O)N[C@@H](CCn3ccnc3)C(=O)N[C@@H](Cc3ccc(C(C)(C)C)cc3)C(=O)N3CCC(CCC#Cc4cccc5c4CN(C4CCC(=O)NC4=O)C5=O)CC3)N2C(=O)[C@@H](NC(=O)c2cc3cc(C(F)(F)P(=O)(O)O)ccc3s2)C1` (stereo partly drawn) [Cpd. No. 19]: 250 nM and greater than 1000 nM.
The like results for `CCN1CC[C@H]2CC[C@@H](C(=O)N[C@@H](CCS(N)(=O)=O)C(=O)N[C@@H](Cc3ccc(C(C)(C)C)cc3)C(=O)N3CCC(CCC#Cc4cccc5c4CN(C4CCC(=O)NC4=O)C5=O)CC3)N2C(=O)[C@@H](NC(=O)c2cc3cc(C(F)(F)P(=O)(O)O)ccc3s2)C1` (stereo partly drawn) [Cpd. No. 20, ((2-(((5S,8S,10aR)-8-(((2S)-1-(((2S)-3-(4-(tert-butyl)phenyl)-1-(4-(4-(2-(2,6-dioxopiperidin-3-yl)-1-oxoisoindolin-4-yl)but-3-yn-1-yl)piperidin-1-yl)-1-oxopropan-2-yl)amino)-1-oxo-4-sulfamoylbutan-2-yl)carbamoyl)-3-ethyl-6-oxodecahydropyrrolo[1,2-a][1,5]diazocin-5-yl)carbamoyl)benzo[b]thiophen-5-yl)difluoromethyl)phosphonic acid] were, in that order, less than 250 nM and greater than 1000 nM.
The matching figures for `CCN1CC[C@H]2CC[C@@H](C(=O)N[C@@H](CCn3ccnc3[N+](=O)[O-])C(=O)N[C@@H](Cc3ccc(C(C)(C)C)cc3)C(=O)N3CCC(CCC#Cc4cccc5c4CN(C4CCC(=O)NC4=O)C5=O)CC3)N2C(=O)[C@@H](NC(=O)c2cc3cc(C(F)(F)P(=O)(O)O)ccc3s2)C1` (stereo partly drawn) [Cpd. No. 21, ((2-(((5S,8S,10aR)-8-(((2S)-1-(((2S)-3-(4-(tert-butyl)phenyl)-1-(4-(4-(2-(2,6-dioxopiperidin-3-yl)-1-oxoisoindolin-4-yl)but-3-yn-1-yl)piperidin-1-yl)-1-oxopropan-2-yl)amino)-4-(2-nitro-1H-imidazol-1-yl)-1-oxobutan-2-yl)carbamoyl)-3-ethyl-6-oxodecahydropyrrolo[1,2-a][1,5]diazocin-5-yl)carbamoyl)benzo[b]thiophen-5-yl)difluoromethyl)phosphonic acid]: greater than 1000 nM and greater than 1000 nM.
Turning to `CCN1CC[C@H]2CC[C@@H](C(=O)N[C@@H](CCn3ccnc3N)C(=O)N[C@@H](Cc3ccc(C(C)(C)C)cc3)C(=O)N3CCC(CCC#Cc4cccc5c4CN(C4CCC(=O)NC4=O)C5=O)CC3)N2C(=O)[C@@H](NC(=O)c2cc3cc(C(F)(F)P(=O)(O)O)ccc3s2)C1` (stereo partly drawn) [Cpd. No. 22, ((2-(((5S,8S,10aR)-8-(((2S)-4-(2-amino-1H-imidazol-1-yl)-1-(((2S)-3-(4-(tert-butyl)phenyl)-1-(4-(4-(2-(2,6-dioxopiperidin-3-yl)-1-oxoisoindolin-4-yl)but-3-yn-1-yl)piperidin-1-yl)-1-oxopropan-2-yl)amino)-1-oxobutan-2-yl)carbamoyl)-3-ethyl-6-oxodecahydropyrrolo[1,2-a][1,5]diazocin-5-yl)carbamoyl)benzo[b]thiophen-5-yl)difluoromethyl)phosphonic acid], the DC50 at STAT3 and on STAT1 was greater than 1000 nM throughout.
